pIC50: −log10 of the molar value.
Columns and labels:
PI3Kα (p110α/p85α) = molecular target: T1, PI3Kα (p110α/p85α) (Homo sapiens, UniProt P42336); experiment: PI3Kα ADP-Glo assay; format: biochemical; conditions: 20 μM PIP2, 10 μM ATP, 30 minutes
T1 construct: GST (N); made in house; host or cells: Baculovirus-infected Sf9 cells
Summary of the method: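 Luminescent ADP-Glo detection, after depletion of residual ATP, quantified ADP made by PI3Kα phosphorylating 20 μM PIP2 at 10 μM ATP. The kinase step ran 30 min at room temperature in HEPES pH 7.4 with MgCl2, DTT and orthovanadate, using baculovirus/Sf9-expressed full-length p110α/p85α complex.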

MDA-MB-231 = experiment: Cell proliferation assay (CellTiter-Glo); format: cell-based; conditions: Homo sapiens, Breast, 72 hours, 0.5% fetal bovine serum, read-out: antiproliferative activity IC50, MDA-MB-231
Procedure: (§1) Cell Proliferation Assay:
(§2) Cancer cell lines were plated at 5,000 to 10,000 per well in 96-well flat bottomed plates with various concentration of compounds. The cells were incubated with compounds for 72 hours in the presence of 0.5% of fetal bovine serum. Growth inhibition was accessed by adenosine triphosphate (ATP) content assay using Promega CellTiter-Glo kit. Promega CellTiter-Glo kit is an ATP monitoring system based on firefly luciferase. Briefly, 16 μl of mammalian cell lysis and substrate solution was added to 84 μl of culture medium per well to lyse the cells and stabilize the ATP. The mixture was shaken and incubated for 30 minutes and subsequently the luminescence was measured.

[1] = test system: HDACs (HeLa cell nuclear extracts); experiment: HDAC enzymatic activity, Biomol Color de Lys system; format: biochemical; conditions: 1 hour, 25° C.
Summary of the method: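 IC50 from sigmoidal fit of developer-terminated fluorescence (ex 350-380/em 440-460 nm). Reaction: 1 h at room temperature (25 °C), HeLa nuclear extract as HDAC source, artificial substrate, buffer of 50 mM Tris/Cl pH 8.0 with 137 mM NaCl, 2.7 mM KCl and 1 mM MgCl2.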

WiDr = experiment: Cell proliferation assay (CellTiter-Glo); format: cell-based; conditions: Homo sapiens, Colon, 72 hours, 0.5% fetal bovine serum, read-out: antiproliferative activity IC50, WiDr
Procedure: as §1, §2

Calu6 = experiment: Cell proliferation assay (CellTiter-Glo); format: cell-based; conditions: Homo sapiens, Calu-6; NSCLC; 72 hours, 0.5% fetal bovine serum; read-out: antiproliferative activity IC50, Calu6
Procedure: as §1, §2

SW1990 = experiment: Cell proliferation assay (CellTiter-Glo); format: cell-based; conditions: Homo sapiens, Pancreas, 72 hours, 0.5% fetal bovine serum, read-out: antiproliferative activity IC50, SW1990
Procedure: as §1, §2

CFPAC-1 = experiment: Cell proliferation assay (CellTiter-Glo); format: cell-based; conditions: Homo sapiens, Pancreas, 72 hours, 0.5% fetal bovine serum, read-out: antiproliferative activity IC50, CFPAC-1
Procedure: as §1, §2

PANC-1 = experiment: Cell proliferation assay (CellTiter-Glo); format: cell-based; conditions: Homo sapiens, Pancreas, 72 hours, 0.5% fetal bovine serum, read-out: antiproliferative activity IC50, PANC-1
Procedure: as §1, §2

CaPan2 = experiment: Cell proliferation assay (CellTiter-Glo); format: cell-based; conditions: Homo sapiens, Capan-2; Pancreas; 72 hours, 0.5% fetal bovine serum; read-out: antiproliferative activity IC50, CaPan2
Procedure: as §1, §2

MiaPaca1 = experiment: Cell proliferation assay (CellTiter-Glo); format: cell-based; conditions: Pancreas; 72 hours, 0.5% fetal bovine serum; read-out: antiproliferative activity IC50, MiaPaca1
Procedure: as §1, §2

[2] = molecular target: T2, mTor serine/threonine protein kinase (Homo sapiens, UniProt P42345); experiment: mTor kinase radioisotope assay; format: biochemical; conditions: 70 uM ATP, 40 minutes; read-out: m-TOR IC50
T2 construct: FLAG; made in house; host or cells: Baculovirus expression system in Sf21 cells
Procedure: (F) an In Vitro Assay which-Determines the Ability of a Test Compound to Inhibit mTor Serine/Threonine Protein Kinase.
The ability of compounds to inhibit mTor activity was assayed using standard radioisotope assay for kinase. Briefly, FLAG-tagged, recombinant full-length human mTor (GenBank accession No. NM_004958) was expressed using baculovirus expression system in Sf21 cells and purified using antibody affinity column. Purified enzyme was incubated with c-terminal fragment of p70S6K as it's substrate in the presence of ATP. p33 ATP tracers were included in the assay to monitor the enzyme activity. Final assay condition was with 50 mM HEPES pH 7.5, 1 mM EGTA, 0.01% Tween 20, 2 mg/ml substrate, 3 mM Manganese Chloride and 70 uM of ATP and was carried out at room temperature for 40 minutes. The reaction was then stopped by the addition of 3% phosphoric acid solution. 10 ul of the reaction was spotted onto a P30 filtermat and washed three times for 5 minutes in 75 mM phosphoric acid and once in methanol prior to drying and scintillation counting. Different concentrations of compounds were added to reaction to assess the activity of compounds to inhibit mTor kinase. IC50 was calculated using Prism software with sigmoidal dose-response curve fitting.

HCT116 = experiment: Cell proliferation assay (CellTiter-Glo); format: cell-based; conditions: Homo sapiens, HCT-116; Colon; 72 hours, 0.5% fetal bovine serum; read-out: antiproliferative activity IC50, HCT116
Procedure: as §1, §2

T1 sequence (P42336 whole entry): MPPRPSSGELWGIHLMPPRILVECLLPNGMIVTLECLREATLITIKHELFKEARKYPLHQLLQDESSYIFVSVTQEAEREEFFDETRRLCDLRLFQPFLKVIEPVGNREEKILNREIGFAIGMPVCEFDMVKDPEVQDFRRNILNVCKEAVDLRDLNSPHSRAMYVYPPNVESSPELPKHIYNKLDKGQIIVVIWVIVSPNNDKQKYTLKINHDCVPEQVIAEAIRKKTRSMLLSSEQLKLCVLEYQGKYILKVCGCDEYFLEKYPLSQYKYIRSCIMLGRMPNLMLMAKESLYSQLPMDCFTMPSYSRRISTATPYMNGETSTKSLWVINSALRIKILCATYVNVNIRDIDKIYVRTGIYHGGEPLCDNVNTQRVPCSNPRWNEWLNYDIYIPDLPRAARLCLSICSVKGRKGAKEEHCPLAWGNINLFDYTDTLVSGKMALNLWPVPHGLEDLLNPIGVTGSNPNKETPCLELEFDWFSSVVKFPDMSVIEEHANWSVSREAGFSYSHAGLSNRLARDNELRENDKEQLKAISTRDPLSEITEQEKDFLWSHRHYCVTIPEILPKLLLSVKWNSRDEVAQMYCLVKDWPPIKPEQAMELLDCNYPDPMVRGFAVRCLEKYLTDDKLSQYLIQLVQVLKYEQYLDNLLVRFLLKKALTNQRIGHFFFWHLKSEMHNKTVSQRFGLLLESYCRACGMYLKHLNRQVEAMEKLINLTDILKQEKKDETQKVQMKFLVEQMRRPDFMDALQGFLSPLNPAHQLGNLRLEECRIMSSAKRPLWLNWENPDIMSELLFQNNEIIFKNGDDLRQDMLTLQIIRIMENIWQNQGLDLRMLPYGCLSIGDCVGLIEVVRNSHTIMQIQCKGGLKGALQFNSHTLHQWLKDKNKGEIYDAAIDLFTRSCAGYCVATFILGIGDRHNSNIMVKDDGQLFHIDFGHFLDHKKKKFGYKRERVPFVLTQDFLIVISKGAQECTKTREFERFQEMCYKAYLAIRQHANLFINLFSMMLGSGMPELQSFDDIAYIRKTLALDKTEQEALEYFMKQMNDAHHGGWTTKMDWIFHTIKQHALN
T1 sequence (P27986 whole entry partner): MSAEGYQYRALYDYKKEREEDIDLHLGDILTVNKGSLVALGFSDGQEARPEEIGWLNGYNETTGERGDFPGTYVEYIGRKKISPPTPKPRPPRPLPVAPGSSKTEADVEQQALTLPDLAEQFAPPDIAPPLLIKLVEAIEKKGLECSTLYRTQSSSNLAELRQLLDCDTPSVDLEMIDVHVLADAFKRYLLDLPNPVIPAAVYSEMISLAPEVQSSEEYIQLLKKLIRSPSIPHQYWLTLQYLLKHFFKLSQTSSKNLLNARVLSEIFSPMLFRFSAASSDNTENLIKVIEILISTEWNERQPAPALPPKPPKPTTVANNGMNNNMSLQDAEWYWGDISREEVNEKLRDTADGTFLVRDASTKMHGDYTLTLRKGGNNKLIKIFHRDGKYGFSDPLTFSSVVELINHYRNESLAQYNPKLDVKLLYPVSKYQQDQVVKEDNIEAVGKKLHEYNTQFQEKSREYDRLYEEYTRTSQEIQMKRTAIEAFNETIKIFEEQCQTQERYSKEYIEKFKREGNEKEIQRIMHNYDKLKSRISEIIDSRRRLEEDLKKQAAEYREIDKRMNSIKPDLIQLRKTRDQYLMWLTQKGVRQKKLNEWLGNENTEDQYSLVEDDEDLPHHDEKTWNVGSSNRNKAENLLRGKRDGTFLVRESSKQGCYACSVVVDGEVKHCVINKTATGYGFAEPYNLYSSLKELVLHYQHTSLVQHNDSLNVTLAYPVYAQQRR

Structure (SMILES)	melting point [°C]	pIC50 (PI3Kα (p110α/p85α))	pIC50 (MDA-MB-231)	pIC50 [1]	pIC50 (Calu6)	pIC50 (SW1990)	pIC50 (PANC-1)	pIC50 (MiaPaca1)	pIC50 [2]	pIC50 (HCT116)	pIC50 (WiDr)	pIC50 (CFPAC-1)	pIC50 (CaPan2)
COc1ncc(-c2nc(N3CCOCC3)c3sc(CN(C)c4ncc(C(=O)NO)cn4)cc3n2)cn1 [Compound 261, N-Hydroxy-2-(((2-(2-methoxypyrimidin-5-yl)-4-morpholinothieno[3,2-d]pyrimidin-6-yl)methyl)(methyl)amino)pyrimidine-5-carboxamide]	215 to 220	> 7.00	7.00 to 8.00	> 7.00									
CCc1ncc(-c2nc(N3CCOCC3)c3sc(CN(C)c4ncc(C(=O)NO)cn4)cc3n2)cn1 [Compound 121, 2-(((2-(2-ethylpyrimidin-5-yl)-4-morpholinothieno[3,2-d]pyrimidin-6-yl)methyl)(methyl)amino)-N-hydroxypyrimidine-5-carboxamide]	153 to 156	> 7.00		> 7.00					5.00 to 6.00				
Cc1nc(N)ncc1-c1nc(N2CCOCC2)c2sc(CN(C)c3ncc(C(=O)NO)cn3)cc2n1 [Compound 125, 2-(((2-(2-amino-4-methylpyrimidin-5-yl)-4-morpholinothieno[3,2-d]pyrimidin-6-yl)methyl)(methyl)amino)-N-hydroxypyrimidine-5-carboxamide]	195 to 198	> 7.00		> 7.00						7.00 to 8.00			
O=C(CCCCCNCc1cc2nc(-c3cccc4[nH]ncc34)nc(N3CCOCC3)c2s1)NO [Compound 43, 6-((2-(1H-indazol-4-yl)-4-morpholinothieno[3,2-d]pyrimidin-6-yl)methylamino)-N-hydroxyhexanamide]	128 to 130	5.00 to 6.00		> 7.00					5.00 to 6.00				
CN(Cc1cc2nc(-c3ccc4[nH]c(C(F)(F)F)nc4c3)nc(N3CCOCC3)c2s1)c1ncc(C(=O)NO)cn1 [Compound 318]	> 300	> 7.00		> 7.00					6.00 to 7.00				
Cc1nc2ccc(-c3nc(N4CCOCC4)c4sc(CN(C)c5ncc(C(=O)NO)cn5)cc4n3)cc2[nH]1 [Compound 199, N-hydroxy-2-(methyl((2-(2-methyl-3H-benzo[d]imidazol-5-yl)-4-morpholinothieno[3,2-d]pyrimidin-6-yl)methyl)amino)pyrimidine-5-carboxamide]	230 to 233	> 7.00	7.00 to 8.00	> 7.00	6.00 to 7.00	7.00 to 8.00	6.00 to 7.00	7.00 to 8.00			7.00 to 8.00		5.00 to 6.00

Now from value to compound, other results behind:

melting point [°C]	pIC50 (PI3Kα (p110α/p85α))	pIC50 (MDA-MB-231)	pIC50 [1]	pIC50 (Calu6)	pIC50 (SW1990)	pIC50 (PANC-1)	pIC50 (MiaPaca1)	pIC50 [2]	pIC50 (HCT116)	Structure (SMILES)	pIC50 (WiDr)	pIC50 (CFPAC-1)	pIC50 (CaPan2)
184 to 186	> 7.00	7.00 to 8.00	> 7.00	7.00 to 8.00	7.00 to 8.00	6.00 to 7.00	7.00 to 8.00	6.00 to 7.00		Cc1ncc(-c2nc(N3CCOCC3)c3sc(CN(C)c4ncc(C(=O)NO)cn4)cc3n2)cn1 [Compound 120, N-hydroxy-2-(methyl((2-(2-methylpyrimidin-5-yl)-4-morpholinothieno[3,2-d]pyrimidin-6-yl)methyl)amino)pyrimidine-5-carboxamide]	7.00 to 8.00	6.00 to 7.00	6.00 to 7.00
183 to 187	> 7.00	7.00 to 8.00	> 7.00	7.00 to 8.00	7.00 to 8.00	7.00 to 8.00	7.00 to 8.00	> 7.00		CNc1ncc(-c2nc(N3CCOCC3)c3sc(CN(C)c4ncc(C(=O)NO)cn4)cc3n2)cn1 [Compound 116, N-hydroxy-2-(methyl((2-(2-(methylamino)pyrimidin-5-yl)-4-morpholinothieno[3,2-d]pyrimidin-6-yl)methyl)amino)pyrimidine-5-carboxamide]	7.00 to 8.00	6.00 to 7.00	7.00 to 8.00
175 to 181	> 7.00	7.00 to 8.00	> 7.00	7.00 to 8.00				> 7.00		CN(Cc1cc2nc(-c3cccc(O)c3)nc(N3CCOCC3)c2s1)c1ncc(C(=O)NO)cn1 [Compound 132, N-hydroxy-2-(((2-(3-hydroxyphenyl)-4-morpholinothieno[3,2-d]pyrimidin-6-yl)methyl)(methyl)amino)pyrimidine-5-carboxamide]	6.00 to 7.00		
169 to 173	6.00 to 7.00		> 7.00					6.00 to 7.00		C[C@@H](O)c1cccc(-c2nc(N3CCOCC3)c3sc(CN(C)c4ncc(C(=O)NO)cn4)cc3n2)c1 [Compound 297, (R)—N-Hydroxy-2-(((2-(3-(1-hydroxyethyl)phenyl)-4-morpholinothieno[3,2-d]pyrimidin-6-yl)methyl)(methyl)amino)pyrimidine-5-carboxamide]			
197 to 201	> 7.00	7.00 to 8.00	> 7.00	7.00 to 8.00	7.00 to 8.00	7.00 to 8.00	7.00 to 8.00			CC(=O)Nc1ccc(-c2nc(N3CCOCC3)c3sc(CN(C)c4ncc(C(=O)NO)cn4)cc3n2)cn1 [Compound 112, 2-(((2-(6-acetamidopyridin-3-yl)-4-morpholinothieno[3,2-d]pyrimidin-6-yl)methyl)(methyl)amino)-N-hydroxypyrimidine-5-carboxamide]	6.00 to 7.00	6.00 to 7.00	6.00 to 7.00
228 to 230	> 7.00		> 7.00	7.00 to 8.00				> 7.00		CC(=O)Nc1ccc(-c2nc(N3CCOCC3)c3sc(CN(C)c4ncc(C(=O)NO)cn4)cc3n2)cc1 [Compound 157, 2-(((2-(4-acetamidophenyl)-4-morpholinothieno[3,2-d]pyrimidin-6-yl)methyl)(methyl)amino)-N-hydroxypyrimidine-5-carboxamide]	6.00 to 7.00		
231 to 239	> 7.00	6.00 to 7.00	> 7.00	6.00 to 7.00	7.00 to 8.00	6.00 to 7.00	7.00 to 8.00			CN(Cc1cc2nc(-c3ccc4[nH]cnc4c3)nc(N3CCOCC3)c2s1)c1ncc(C(=O)NO)cn1 [Compound 187, 2-(((2-(1H-benzo[d]imidazol-5-yl)-4-morpholinothieno[3,2-d]pyrimidin-6-yl)methyl)(methyl)amino)-N-hydroxypyrimidine-5-carboxamide]	7.00 to 8.00	6.00 to 7.00	6.00 to 7.00
160 to 164	> 7.00		> 7.00					6.00 to 7.00		CN(Cc1cc2nc(-c3cccnc3)nc(N3CCOCC3)c2s1)c1ncc(C(=O)NO)cn1 [Compound 109, N-hydroxy-2-(methyl((4-morpholino-2-(pyridin-3-yl)thieno[3,2-d]pyrimidin-6-yl)methyl)amino)pyrimidine-5-carboxamide]			
